# Molecular target: T1, Sc-FAR-2 (Steinernema carpocapsae, UniProt A0A4U5NI02)
# T1 construct: gene L596_016036; mature protein (signal peptide removed), N-terminal His6 tag cut off with TEV protease, E. coli BL21-CodonPlus, about 20 kDa family
# Experiment: fluorescence titration, one-site fit
# Assay type: binding
# T1 sequence (A0A4U5NI02 entry or part of it): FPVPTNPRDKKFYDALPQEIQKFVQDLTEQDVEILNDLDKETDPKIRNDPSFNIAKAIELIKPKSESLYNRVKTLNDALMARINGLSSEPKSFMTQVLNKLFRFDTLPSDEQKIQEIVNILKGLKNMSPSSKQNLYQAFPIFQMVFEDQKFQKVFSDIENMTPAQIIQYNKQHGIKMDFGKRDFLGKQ
structure (smiles),measurement,value
CN(C)c1cccc2c(S(=O)(=O)NCCCCCCCCCCC(=O)O)cccc12 [DAUDA],Kd,21.8 µM

# — paper PMC8580252, “Parasitic nematode fatty acid- and retinol-binding proteins compromise host immunity by interfering with host lipid signaling pathways” (PLoS Pathogens, 2021)
